How the values were obtained:
[1] = system: homozygous mice; experiment: Survival of hypertensive (Dox) homozygous mice on high-fat diet, weekly methotrexate injection; type: in vivo; conditions: hypertension (Dox) combined with high-fat diet, methotrexate 1 mg/kg weekly, at 8 weeks of co-administration, control 43%, FIG. 12B
From the text: (§1) Homozygous mice, divided into 5 groups, are to fed with normal diet (Chow), high-fat diet (HF), high-fat diet plus boostin (HF+D), high-fat diet plus methotrexate (MTX) (HF+M), and high-fat diet plus boostin and methotrexate (HF+D+M). […] Homozygous mice are fed with normal diet (Chow) until 8 weeks old, and are fed with high fat diet HF (HF formula: 21.2% fat, 48.7% carbohydrate, 17.3% protein, and 0.25% cholesterol) for 8 weeks. The mice are divided in to groups, with each group having 15 mice. The HF group is fed with high-fat diet, and is injected with 100 μl of physiological saline weekly. The HF+M group is fed with high-fat diet, and is injected with methotrexate at a dose of 1 mg/kg once a week. The HF+D group is fed with high-fat diet and 1-2 mg/ml of doxycycline together with drinking water, and is injected with 100 μl of physiological saline weekly. The HF+D+M group is fed with high-fat diet, injected with methotrexate at a dose of 1 mg/kg once a week, and fed with doxycycline at 1-2 mg/ml together with drinking water. The blood pressure changes of the mice are periodically detected, and the data such as blood, blood lipids, blood pressure and death data etc. of the mice are collected.
As shown in FIGS. 11A to 11D, hypertension combined with a high-fat diet induce higher accumulation of triglycerides in the blood of mice. […]

[2] = system: homozygous mice; experiment: Blood pressure of homozygous mice on HF diet with/without doxycycline, weekly MTX injection (non-invasive tail pressure measurement); type: in vivo; conditions: male homozygous mice, HF diet with/without Dox, MTX 1 mg/kg i.p. once a week; FIG. 12A
Description: The mice are divided into 3 groups for experiments, wild-type mice (Wt), homozygous mice (Hom) and heterozygous mice (Het), with each group having 15 mice. The mice are fed with normal diet (Chow) until 8 weeks old, and are administrated tetracycline analog doxycycline (1 to 2 mg/ml) with water. The blood pressure changes of mice are measured periodically. The method for measuring the blood pressure of mice is the method of non-invasive tail pressure measurement (iiTC Life Science, Woodland Hills, CA), wherein the mice are fixed in the sleeve and stay quiet in the sleeve for 10 minutes. Then the instrument is operated to measure the blood pressure at the tail of mice using […], three measurements are made for each operation, and the average is taken. Mice blood is collected, and body weight, heart weight, spleen weight, blood lipids and blood pressure of mice are measured.
(§2) Homozygous mice, divided into 5 groups, are to fed with normal diet (Chow), high-fat diet (HF), high-fat diet plus boostin (HF+D), high-fat diet plus methotrexate (MTX) (HF+M), and high-fat diet plus boostin and methotrexate (HF+D+M). […] The blood pressure changes of the mice are periodically detected, and the data such as blood, blood lipids, blood pressure and death data etc. of the mice are collected. […]

[3] = system: IL-6, ICAM-1, E-selectin, VCAM-1 expressions; conditions: general statement on the anti-inflammatory drug; cited from earlier work
[4] = system: homozygous mice; experiment: Quantification of ascending aortic atherosclerotic plaques in homozygous mice on HF diet with/without Dox, weekly MTX; type: in vivo; conditions: hypertensive (Dox) homozygous mice fed HF diet for 8 weeks, control 46%, P<0.05, FIGS. 12C-D
From the text: Homozygous mice (Hom) and ApoE knockout mice (KO) are used as controls, the experiment is employed by dividing the mice into four groups, each group has 15 mice, four groups being normal diet group (Chow), high fat diet group (HF), higher fat diet group (H-HF) and ultra-high fat diet group (CH-HF). The mice are fed with normal diet group (Chow) until 8 weeks old and then are fed with different high fat diet, respectively being HF feed (HF formula: 21.2% fat, 48.7% carbohydrate, 17.3% protein, and 0.25% cholesterol), H-HF feed (H-HF formula: 21.2% fat, 48.7% carbohydrate, 17.3% protein, and 1.25% cholesterol), and CH-HF feed (CH-HF formula: 21.2% fat, 48.7% carbohydrate, 17.3% protein, 1.25% cholesterol, and 0.5% cholic acid). After 8 weeks of treatment, collecting the blood of the mice, detecting the body weight, heart weight, spleen weight and blood lipids of the mice, and isolating the mice aorta for oil red O staining so as to quantify the atherosclerotic plaque content.
as §2

[5] = system: patients suffering from long-term inflammatory diseases such as rheumatoid arthritis; conditions: clinically, low doses; patients with long-term inflammatory diseases such as rheumatoid arthritis; ref. [10]; cited from earlier work
[6] = system: homozygous mice; experiment: Detection of cytokines and adhesion molecules in plasma of homozygous mice on HF diet with/without Dox, weekly MTX; type: in vivo
From the text: as §1
As shown in FIGS. 11A to 11D, hypertension combined with a high-fat diet induce higher accumulation of triglycerides in the blood of mice. The inventors, using homozygous mice, have studied the effects of methotrexate (MTX) (an anti-inflammatory drug) on cardiovascular. Male homozygous mice are fed with HF diet with/without the addition of doxycycline (Dox), and are further randomized by intraperitoneal injection of MTX or control (vector) weekly. […] Hypertension combined with a high-fat diet induced higher mortality of mice, but if injected with methotrexate weekly, the survival rate of mice is increased at 8 weeks of co-administration (74% versus 43%, FIG. 12B).

[7] = hypertensive (Dox) homozygous mice, HF diet, MTX weekly, FIG. 12H-J
[8] = induced hypertensive MTX group compared with control group, FIGS. 12K-S

For `CN(Cc1cnc2nc(N)nc(N)c2n1)c1ccc(C(=O)N[C@@H](CCC(=O)O)C(=O)O)cc1` [MTX, methotrexate], the “survival rate of mice” value [1] is given as 74%, the “blood pressure of the mice” value [2] is given as “would not alter” and the “IL-6, ICAM-1, E-selectin, VCAM-1 expressions” value [3] is given as “can down-regulate”. For the same molecule, the atherosclerotic lesions [4] was 34%, the “cardiovascular risk in patients” value [5] was “could reduce cardiovascular risk” and the “plasma concentration of MCP-5, intercellular adhesion molecule-1 and vascular cell adhesion molecules” value ([6]; homozygous mice having normal blood pressure, HF diet, MTX weekly, FIG. 12H-J) was “would not produce any effect”. The “plasma concentration of intercellular adhesion molecule-1” value [6, 7] was “would significantly reduce”, the “plasma concentration of monocyte chemoattractant protein (MCP)-5” value [6, 7] was “would significantly reduce” and the “E-selectin level in plasma” value [6, 8] was “decreased level”. The “IL-1β level in plasma” value [6, 8] was “decreased level”, the “IL-6 level in plasma” value [6, 8] was “decreased level” and the “IL-17 level in plasma” value [6, 8] was “decreased level”. The “MCP-1 level in plasma” value [6, 8] was “decreased level”, the “P-selectin level in plasma” value [6, 8] was “decreased level” and the “granulocyte colony-stimulating factor level in plasma” value [6, 8] was “decreased level”. The “interferon-γ level in plasma” value [6, 8] was “decreased level” and the “tumor necrosis factor-α level in plasma” value [6, 8] was “decreased level”.
